Where only a bound is given, the exact number is not on record here.

The values that follow come from US10894792B2, “Pesticidally active heterocyclic derivatives with sulfur containing substituents” (SYNGENTA PARTICIPATIONS AG, priority 2017, dated 2021).

Series [1] has as its system Myzus persicae. Put plainly: Activity against Myzus persicae (green peach aphid), sprayed sunflower leaf discs. Type of series: in vivo. To be noted: foliar, 144 h, application rate of 200 ppm, aphid population of mixed ages, 6 days after infestation. The procedure: Sunflower leaf discs were placed on agar in a 24-well microtiter plate and sprayed with aqueous test solutions prepared from 10′000 ppm DMSO stock solutions. After drying, the leaf discs were infested with an aphid population of mixed ages. The samples were assessed for mortality 6 days after infestation.

A further series relates to Diabrotica Balteata. Kind of series: Activity against Diabrotica balteata (corn root worm). To be noted: 96 h, application rate of 200 ppm, sprayed maize sprouts, L2 larvae, 4 days after infestation, read-out: effect in at least one of the two categories (mortality or growth inhibition). Type of series: in vivo. On the procedure: Maize sprouts placed onto an agar layer in 24-well microtiter plates were treated with aqueous test solutions prepared from 10′000 ppm DMSO stock solutions by spraying. After drying, the plates were infested with L2 larvae (6 to 10 per well). The samples were assessed for mortality and growth inhibition in comparison to untreated samples 4 days after infestation.

In another series the test system is Thrips tabaci. Put plainly: Activity against Thrips tabaci (onion thrips). To be noted: foliar, 144 h, application rate of 200 ppm, sprayed sunflower leaf discs, thrips population of mixed ages, 6 days after infestation. It counts as in vivo. The procedure: Sunflower leaf discs were placed on agar in 24-well microtiter plates and sprayed with aqueous test solutions prepared from 10′000 ppm DMSO stock solutions. After drying the leaf discs were infested with a thrips population of mixed ages. The samples were assessed for mortality 6 days after infestation.

A further series concerns Plutella xylostella. Put plainly: Activity against Plutella xylostella (diamond back moth), artificial diet. It counts as in vivo. To be noted: 120 h, application rate of 200 ppm, L2 larvae on artificial diet, 5 days after infestation, read-out: effect in at least one of the two categories (mortality or growth inhibition). The procedure:
24-well microtiter plates with artificial diet were treated with aqueous test solutions prepared from 10′000 ppm DMSO stock solutions by pipetting. After drying, the plates were infested with L2 larvae (10 to 15 per well). The samples were assessed for mortality and growth inhibition in comparison to untreated samples 5 days after infestation.

For series [2], the system named is Frankliniella occidentalis. Kind of series: Activity against Frankliniella occidentalis (western flower thrips). It counts as in vivo. To be noted: foliar, 168 h, application rate of 200 ppm, sprayed sunflower leaf discs, population of mixed ages, 7 days after infestation. The procedure:
Sunflower leaf discs were placed on agar in 24-well microtiter plates and sprayed with aqueous test solutions prepared from […] stock solutions. After drying the leaf discs were infested with a Frankliniella population of mixed ages. The samples were assessed for mortality 7 days after infestation.

Series [3] deals with Myzus persicae. Put plainly: Activity against Myzus persicae (green peach aphid), roots of pea seedlings in test solution. It counts as in vivo. To be noted: 144 h, test rate of 24 ppm, roots of infested pea seedlings in test solution, 6 days. The procedure: Roots of pea seedlings infested with an aphid population of mixed ages were placed directly in the aqueous test solutions prepared from 10′000 DMSO stock solutions. The samples were assessed for mortality 6 days after placing seedlings in test solutions.

A further series relates to Bemisia tabaci. Kind of series: Activity against Bemisia tabaci (cotton white fly). It counts as in vivo. To be noted: foliar, 144 h, application rate of 200 ppm, sprayed cotton leaf discs, adult white flies, 6 days after incubation. On the procedure:
Cotton leaf discs were placed on agar in 24-well microtiter plates and sprayed with aqueous test solutions prepared from 10′000 ppm DMSO stock solutions. After drying the leaf discs were infested with adult white flies. The samples were checked for mortality 6 days after incubation.

The test system of the next series is Euschistus heros. Kind of series: Activity against Euschistus heros (neotropical brown stink bug). It counts as in vivo. The conditions noted are these: 120 h, application rate of 200 ppm, sprayed soybean leaf, N-2 nymphs, 5 days after infestation, read-out: effect in at least one of the two categories (mortality or growth inhibition). The procedure: Soybean leaf on agar in 24-well microtiter plates were sprayed with aqueous test solutions prepared from 10′000 ppm DMSO stock solutions. After drying the leaf were infested with N-2 nymphs. The samples were assessed for mortality and growth inhibition in comparison to untreated samples 5 days after infestation.

Another series deals with Spodoptera littoralis. Kind of series: Activity against Spodoptera littoralis (Egyptian cotton leaf worm). Type of series: in vivo. To be noted: foliar, 72 h, application rate of 200 ppm, sprayed cotton leaf discs, L1 larvae, 3 days after infestation, read-out: control (mortality, anti-feeding effect, or growth inhibition). On the procedure:
Cotton leaf discs were placed onto agar in 24-well microtiter plates and sprayed with aqueous test solutions prepared from 10′000 ppm DMSO stock solutions. After drying the leaf discs were infested with five L1 larvae. The samples were assessed for mortality, anti-feeding effect, and growth inhibition in comparison to untreated samples 3 days after infestation. Control of Spodoptera littoralis by a test sample is given when at least one of the categories mortality, anti-feedant effect, and growth inhibition is higher than the untreated sample.

As to `CCS(=O)(=O)c1cc(C(=O)N=S(C)(C)=O)cnc1-c1nc2cc(C(F)(F)F)ncc2n1C` [Compound P1, N-[dimethyl(oxo)-λ^6-sulfanylidene]-5-ethylsulfonyl-6-[3-methyl-6-(trifluoromethyl)imidazo[4,5-c]pyridin-2-yl]pyridine-3-carboxamide], the mortality at 200 ppm (with Myzus persicae [1]; in the series with Thrips tabaci; in [2]; with Bemisia tabaci) was no less than 80% in each case. Also, the percent effect (mortality or growth inhibition) at 200 ppm in the series on Diabrotica Balteata, with Plutella xylostella and in the series on Euschistus heros was no less than 80% in each case. Further, the mortality – broadly, the share of the test organisms that died – at 24 ppm with Myzus persicae [3] was no less than 80%.
Turning to `CCS(=O)(=O)c1cc(C(=O)N=S(C)(C)=O)cnc1-c1cn2cnc(C(F)(F)F)cc2n1` [Compound P4, N-[dimethyl(oxo)-λ^6-sulfanylidene]-5-ethylsulfonyl-6-[7-(trifluoromethyl)imidazo[1,2-c]pyrimidin-2-yl]pyridine-3-carboxamide], the mortality at 200 ppm (with Myzus persicae [1]; in series [2]; in the series on Bemisia tabaci) was no less than 80% each time. The percent effect (mortality or growth inhibition) at 200 ppm with Diabrotica Balteata, in the series on Plutella xylostella and with Euschistus heros was no less than 80% throughout. In addition, the percent control (mortality, anti-feedant effect or growth inhibition) at 200 ppm in the series with Spodoptera littoralis is no less than 80%. The compound further had a mortality at 24 ppm in the series with Myzus persicae [3] of no less than 80%.
Turning to `CCS(=O)(=O)c1cc(C(=O)N=S(C)(=O)CC)cnc1-c1nc2cc(C(F)(F)F)ncc2n1C` (stereo not shown) [Compound P8, N-(ethyl-methyl-oxo-λ^6-sulfanylidene)-5-ethylsulfonyl-6-[3-methyl-6-(trifluoromethyl)imidazo[4,5-c]pyridin-2-yl]pyridine-3-carboxamide], the mortality at 200 ppm (with Myzus persicae [1]; in [2]; in the series on Bemisia tabaci) was no less than 80% in each case. Moreover, the percent effect (mortality or growth inhibition) at 200 ppm with Diabrotica Balteata, in the series on Plutella xylostella and in the series with Euschistus heros was no less than 80% in each case. Further, the percent control (mortality, anti-feedant effect or growth inhibition) at 200 ppm in the series on Spodoptera littoralis was no less than 80%. Moreover, the mortality at 24 ppm in the series on Myzus persicae [3] was no less than 80%.
For the compound `CCS(=O)(=O)c1cc(C(=O)N=S2(=O)CCC2)cnc1-c1cn2cnc(C(F)(F)F)cc2n1` [Compound P13, 5-ethylsulfonyl-N-(1-oxothietan-1-ylidene)-6-[7-(trifluoromethyl)imidazo[1,2-c]pyrimidin-2-yl]pyridine-3-carboxamide], the mortality at 200 ppm in the series with Myzus persicae [1] is no less than 80%. Also, the percent effect (mortality or growth inhibition) at 200 ppm in the series on Diabrotica Balteata, in the series with Plutella xylostella and in the series with Euschistus heros was no less than 80% in each case. Besides, the percent control (mortality, anti-feedant effect or growth inhibition) at 200 ppm with Spodoptera littoralis was no less than 80%. Also, the mortality at 24 ppm in the series on Myzus persicae [3] is no less than 80%.
Take `CCS(=O)(=O)c1cc(C(=O)N=S(C)(C)=O)cnc1-c1nc2cc(C(F)(F)F)cnc2n1C` [Compound P14, N-[dimethyl(oxo)-λ^6-sulfanylidene]-5-ethylsulfonyl-6-[3-methyl-6-(trifluoromethyl)imidazo[4,5-b]pyridin-2-yl]pyridine-3-carboxamide]: the mortality at 200 ppm (with Myzus persicae [1]; in [2]; in the series with Bemisia tabaci) was no less than 80% each time. Further, the percent effect (mortality or growth inhibition) at 200 ppm in the series with Diabrotica Balteata, with Plutella xylostella and with Euschistus heros was no less than 80% in each case. The percent control (mortality, anti-feedant effect or growth inhibition) at 200 ppm in the series with Spodoptera littoralis was no less than 80%. In addition, in the series on Myzus persicae [3], the mortality at 24 ppm was no less than 80%.
Regarding `CCS(=O)(=O)c1cc(C(=O)N=S(C)(=O)CC)cnc1-c1nc2cc(C(F)(F)F)cnc2n1C` (stereo not shown) [Compound P15, N-(ethyl-methyl-oxo-λ^6-sulfanylidene)-5-ethylsulfonyl-6-[3-methyl-6-(trifluoromethyl)imidazo[4,5-b]pyridin-2-yl]pyridine-3-carboxamide], the mortality at 200 ppm (in the series on Myzus persicae [1]; in series [2]; with Bemisia tabaci) was no less than 80% each time. Moreover, the percent effect (mortality or growth inhibition) at 200 ppm in the series with Diabrotica Balteata, in the series on Plutella xylostella and in the series with Euschistus heros was no less than 80% in each case. Further, the percent control (mortality, anti-feedant effect or growth inhibition) at 200 ppm in the series with Spodoptera littoralis is no less than 80%. In addition, the mortality at 24 ppm with Myzus persicae [3] is no less than 80%.
As for `CCS(=O)(=O)c1cc(C(=O)N=S2(=O)CCC2)cnc1-c1nc2cc(C(F)(F)F)cnc2n1C` [Compound P16, 5-ethylsulfonyl-6-[3-methyl-6-(trifluoromethyl)imidazo[4,5-b]pyridin-2-yl]-N-(1-oxothietan-1-ylidene)pyridine-3-carboxamide], the mortality at 200 ppm in the series with Myzus persicae [1] and in the series with Bemisia tabaci was no less than 80% throughout. The percent effect (mortality or growth inhibition) at 200 ppm in the series with Diabrotica Balteata, in the series on Plutella xylostella and in the series on Euschistus heros was no less than 80% in each case. For the same compound, the percent control (mortality, anti-feedant effect or growth inhibition) at 200 ppm in the series on Spodoptera littoralis was no less than 80%. The compound further had a mortality at 24 ppm in the series on Myzus persicae [3] of no less than 80%.
`CCS(=O)(=O)c1cc(C(=O)N=S(=O)(CC)CC)cnc1-c1cn2cnc(C(F)(F)F)cc2n1` [Compound P21, N-[diethyl(oxo)-λ^6-sulfanylidene]-5-ethylsulfonyl-6-[7-(trifluoromethyl)imidazo[1,2-c]pyrimidin-2-yl]pyridine-3-carboxamide]: the percent control (mortality, anti-feedant effect or growth inhibition) at 200 ppm in the series with Spodoptera littoralis is no less than 80%. The percent effect (mortality or growth inhibition) at 200 ppm in the series with Plutella xylostella and with Euschistus heros was no less than 80% in each case.
As to `CCS(=O)(=O)c1cc(C(=O)N=S(C)(C)=O)cnc1-n1cc2cnc(C(F)(F)F)cc2n1` [Compound P24, N-[dimethyl(oxo)-λ^6-sulfanylidene]-5-ethylsulfonyl-6-[6-(trifluoromethyl)pyrazolo[4,3-c]pyridin-2-yl]pyridine-3-carboxamide], the percent effect (mortality or growth inhibition) at 200 ppm with Diabrotica Balteata and with Plutella xylostella was no less than 80% each time. Besides, in the series on Spodoptera littoralis, the percent control (mortality, anti-feedant effect or growth inhibition) at 200 ppm is no less than 80%.
As to `CCS(=O)(=O)c1cc(C(=O)N=S(C)(=O)CC)cnc1-n1cc2cnc(C(F)(F)F)cc2n1` (stereo not shown) [Compound P25, N-(ethyl-methyl-oxo-λ^6-sulfanylidene)-5-ethylsulfonyl-6-[6-(trifluoromethyl)pyrazolo[4,3-c]pyridin-2-yl]pyridine-3-carboxamide], the melting point – broadly, the temperature, or range, at which the solid turns liquid – lay in the range of 216 to 219 °C.
Same read-out and setting: then `CCS(=O)(=O)c1cc(C(=O)N=S(=O)(CC)CC)cnc1-n1cc2cnc(C(F)(F)F)cc2n1` [Compound P26, N-[diethyl(oxo)-λ^6-sulfanylidene]-5-ethylsulfonyl-6-[6-(trifluoromethyl)pyrazolo[4,3-c]pyridin-2-yl]pyridine-3-carboxamide], with 185 to 189 °C.
